Assay results: patent US20170184612A1, “USE OF LEUKOCYTES AND NOVEL BIOMARKERS IN THE DIAGNOSIS, CONFIRMATION, AND TREATMENT OF A NEUROLOGICAL DISORDER” (The Trustees of Columbia University in the City of New York, priority 2014, published 2017)

Columns and labels:
[1] = test system: peripheral blood mononuclear cells (PBMC), T cells; experiment: ELISpot assay, IL-5 release (SFC) after stimulation with a-synuclein epitope pools; assay type: cell-based, human
Experimental: (§1) Blood from age matched controls and PD patients were obtained and mononuclear cells were isolated by gradient centrifugation.
(§2) Release of the cytokines gamma-interferon, which measures activation of CD4+ and/or CD8+ T cells, and the interleukin, IL-5, which measures activation of CD4+ T cells was measured by ELISpot assay. […] After 22 hours of stimulation at 37 C, the cells were removed and release of cytokines was measured by colorimetric detection of spot-forming cells (SFC). Confirmed release of cytokine is determined by the presence of a minimum of 20 SFC per million cells.
(§3) The binding algorithms in SubAim 1 predict how well the peptides would bind to MHC if present, but not if they are present in patients. To determine this, the presence of T cell response against the candidate antigens by patient blood-derived peripheral blood mononuclear cells (PBMC) is assessed by ELISPOT assays upon stimulation with the peptides. This assay detects and quantifies cytokine release (in this case, IFNγ and IL-5) from specific activated T cells.
(§4) Data were obtained from blood samples (25 ml) from 44 PD patients and 24 age-matched controls. The experiments were conducted blindly. PBMCs from these samples were isolated and exposed to pools comprising the 122 candidate class I and class II antigens and phosphorylated S129 epitopes generated in Subaim 1. For the PBMCs responsive to the pooled peptides, the response was then deconvoluted to identify individual epitopes.
(§5) PMBC fractions are recovered by standard methods with Ficoll gradient and T cells expansion (Oseroff et al., 2010). The methods for the analysis of T cell reactions and measurement of cytokines production using the enzyme-linked immunosorbent spot (ELISPOT) assay are published in analogous experiments to discover antigens in multiple sclerosis (Lolli et al., 2013) and in hay fever allergens (Oseroff et al., 2010). T cell responses are determined by measuring IFNγ and IL-5 release by ELISPOT. Statistical analysis of differences between populations is expected to be non-parametric and analyzed with the U-Mann-Whitney test. If there were a normal distribution of response, which is a priori unlikely as some patients have no T cell response, with an SD=1, 8 patients per group would be required to provide a p>90% that the study detect a >2 fold difference at a two-sided 0.05 significance level.

[2] = test system: peripheral blood mononuclear cells (PBMC), T cells; experiment: ELISpot assay, gamma-interferon release (SFC) after stimulation with a-synuclein epitope pools; assay type: cell-based, human; conditions: for Pool +: IFNg, Pool Stimulated, number of donors with a positive response, Donors tested 1
Experimental: as §1, §2, §3, §4, §5

[3] = Patients Summary, PD patients, of donors tested (peptide)
[4] = Patients Summary, PD patients, single peptide
[5] = Patients Summary, Phospho pool peptides
[6] = Patients Summary, Phospho pool peptides, 10 donors tested
[7] = number of donors positive to the single peptide, second 'Pool Stimulated' section (from r296), 12 donors tested
[8] = peptide + / donors tested (peptide), second 'Pool Stimulated' section (from r296), 12 donors tested
[9] = peptides of pool 'Poshpho', 8 donors tested
[10] = peptides of pool 'Poshpho', 8 donors tested, number of donors positive
[11] = single peptide, second 'Pool Stimulated' section (from r296), 12 donors tested
[12] = pool 'Phospho' (phosphorylated peptides)

| Substance | IL-g Peptide + (donors positive to the peptide) [1, 3] | IL-g Response Frequency [1, 4] [%] | IL-g Total SFC [1, 4] [SFC] | IL-g Avg SFC [1, 5] [SFC] | IL-g Response Frequency [1, 5] [%] | IL-g Total SFC [1, 5] [SFC] | IL-g Peptide + (donors positive to the peptide) [1, 6] | IL-g Peptide + [1, 7] | IL-g Response Frequency [1, 8] [%] | IL-g Avg SFC [1, 9] [SFC] | IL-g Response Frequency [1, 9] [%] | IL-g Total SFC [1, 9] [SFC] | IL-g Peptide + [1, 10] | IL-g Total SFC [1, 11] [SFC] | Pool + [2] | IFNg Peptide + (donors positive to the peptide) [2, 3] | IFNg Response Frequency [2, 4] [%] | IFNg Total SFC [2, 4] [SFC] | IFNg Peptide + [2, 7] | IFNg Response Frequency [2, 8] [%] | also measured |
| --- | --- | --- | --- | --- | --- | --- | --- | --- | --- | --- | --- | --- | --- | --- | --- | --- | --- | --- | --- | --- | --- |
| 3521.0023 (YEMPSEEGY; listed as Homo sapiens) | 0 | 0 | 0 | 1593 | 10 | 1593 | 1 | 1 | 50 | 193 | 13 | 193 | 1 | 58 | 0 | 0 | 0 | 0 | 0 | 0 | IL-g Avg SFC [1, 11]: 58 SFC; Pool + [2, 12]: 1; IFNg Avg SFC [2, 5]: 680 SFC; IFNg Response Frequency [2, 5]: 30%; IFNg Total SFC [2, 5]: 2039 SFC; IFNg Peptide + (donors positive to the peptide) [2, 6]: 3; IFNg Avg SFC [2, 9]: 333 SFC; IFNg Response Frequency [2, 9]: 13%; IFNg Total SFC [2, 9]: 333 SFC; IFNg Peptide + [2, 10]: 1 |
| 3521.0024 (DPDNEAYEM; listed as Homo sapiens) | 0 | 0 | 0 |  |  |  |  | 1 | 50 |  |  |  |  | 300 | 0 | 0 | 0 | 0 |  | 50 | IL-g Avg SFC [1, 11]: 300 SFC; IFNg Total SFC [2, 11]: 93.3 SFC |
| 3521.0025 (EEGAPQEGI; listed as Homo sapiens) | 2 | 50 | 172 |  |  |  |  | 0 | 0 |  |  |  |  | 0 | 0 | 1 | 25 | 290 | 0 | 0 | IL-g Avg SFC [1, 4]: 86 SFC; IFNg Avg SFC [2, 4]: 290 SFC; IFNg Total SFC [2, 11]: 0 SFC |
| 3521.0026 (MPSEEGYQD; listed as Homo sapiens) | 0 | 0 | 0 | 773 | 10 | 773 | 1 | 1 | 50 | 93 | 13 | 93 | 1 | 66 | 0 | 0 | 0 | 0 | 0 | 0 | IL-g Avg SFC [1, 11]: 66 SFC; Pool + [2, 12]: 1; IFNg Avg SFC [2, 5]: 407 SFC; IFNg Response Frequency [2, 5]: 40%; IFNg Total SFC [2, 5]: 1627 SFC; IFNg Peptide + (donors positive to the peptide) [2, 6]: 4; IFNg Avg SFC [2, 9]: 27 SFC; IFNg Response Frequency [2, 9]: 13%; IFNg Total SFC [2, 9]: 27 SFC; IFNg Peptide + [2, 10]: 1 |
| 3521.0027 (AYEMPSEEGY; listed as Homo sapiens) | 0 | 0 | 0 | 530 | 20 | 1060 | 2 | 0 | 0 | 87 | 13 | 87 | 1 | 0 | 0 | 0 | 0 | 0 | 0 | 0 | Pool + [2, 12]: 1; IFNg Avg SFC [2, 5]: 700 SFC; IFNg Response Frequency [2, 5]: 20%; IFNg Total SFC [2, 5]: 1400 SFC; IFNg Peptide + (donors positive to the peptide) [2, 6]: 2; IFNg Avg SFC [2, 9]: 53 SFC; IFNg Response Frequency [2, 9]: 13%; IFNg Total SFC [2, 9]: 53 SFC; IFNg Peptide + [2, 10]: 1 |
| 3521.0028 (MPSEEGYQDY; listed as Homo sapiens) | 0 | 0 | 0 | 350 | 20 | 700.3 | 2 | 0 | 0 | 113 | 13 | 113 | 1 | 0 | 0 | 0 | 0 | 0 | 0 | 0 | Pool + [2, 12]: 1; IFNg Avg SFC [2, 5]: 420 SFC; IFNg Response Frequency [2, 5]: 30%; IFNg Total SFC [2, 5]: 1260 SFC; IFNg Peptide + (donors positive to the peptide) [2, 6]: 3; IFNg Avg SFC [2, 9]: 40 SFC; IFNg Response Frequency [2, 9]: 13%; IFNg Total SFC [2, 9]: 40 SFC; IFNg Peptide + [2, 10]: 1 |
| 3521.0029 (NVGGAVVTGV; listed as Homo sapiens) | 0 | 0 | 0 |  |  |  |  | 0 | 0 |  |  |  |  | 0 | 0 | 0 | 0 | 0 | 0 | 0 | IFNg Total SFC [2, 11]: 0 SFC |
